Experimental data as given in article PMC9569529, “Safe and Efficient Sigma1 Ligand: A Potential Drug Candidate for Multiple Sclerosis” (International Journal of Molecular Sciences, 2022).

Experiments:
Caco-2 cell line = test: Bidirectional permeability in Caco-2 (pH 6.5/7.4); format: in vitro ADME, human; settings: Papp(B-A)/Papp(A-B), pH 6.5/7.4
Procedure: The compound was classically evaluated at 10 µM for all the ADME analyses. Bidirectional permeability (apical A to basolateral B pH 6.5/7.4 and basolateral B to apical A pH 7.4/6.5) was assessed in the epithelial colorectal adenocarcinoma cell line (Caco-2 cell line). Results were expressed as × 10^−6cm/s (Papp) and as % recovery. Efflux ratio, i.e., Papp(B-A)/Papp(A-B), was calculated. Plasma protein binding was analyzed by HPLC-MS/MS after 4-h incubation at 37 °C, as described by Banker et al.. Concentration was evaluated by LC/MS-MS. CYP inhibition was performed in human liver microsomes as described in [61]. Analysis of the respective metabolites. was performed by HPLC-MS/MS. Transporter inhibition analysis was also performed in overexpressing cell lines. Respective metabolites for each specific transporter substrate were analyzed by fluorometry or scintillation counting and % inhibition of control values were calculated. P-glycoprotein transporter substrate assessment was performed by bidirectional permeability analysis (apical A to basolateral B pH 7.4/7.4 and basolateral B to apical A pH 7.4/7.4) in the Caco-2 cell line with and without verapamil, as described in [59]. Results were expressed as ×10^−6 cm/s (Papp) and as % recovery. The efflux ratio, i.e., Papp(B-A)/Papp(A-B), was calculated. CYP450 induction characterization was performed on human hepatocytes. The mRNA levels of 7 different CYPs were analyzed by qPCR, as described in [72]. The compound was evaluated at 1, 10 and 100 µM. Fold-induction values were determined and compared to cut-off values, as defined for each CYP isozyme in each hepatocyte lot.

TK6 cells = test: In vitro micronucleus test
Procedure: The frequency of micronucleated (MN) cells was determined out of at least 2000 mononucleated cells.

S. typhimurium TA1535 = settings: 7i 40 µg/plate
[1] = system: human peripheral blood mononuclear cells (hPBMCs); test: Immunotoxicity, immunophenotyping by flow cytometry; format: cell-based; settings: 10 µM, 48 h
Procedure: Immunotoxicity analysis was performed by Immune Insight CRO (Lille, France) on human peripheral blood mononuclear cells (hPBMCs) from six individual healthy donors. hPBMCs were either non-stimulated (basal) or stimulated using E. coli lipopolysaccharide (LPS, Sigma Aldrich, St. Louis, MO, USA) at 100 ng/mL. hPBMCs were activated with plate-bound anti-CD3 (10 ng/mL) monoclonal antibody (mAb) and incubated at 37 °C for 2 h before the culture and soluble anti-CD28 (10 ng/mL) mAb (Clinisciences, Montrouge, France) were added. Compound 7i was tested at 10 µM. The quality of hPBMC activation was controlled using cytometric analysis based on CD25 staining and proliferation assays based on ^3H-thymidine incorporation. Immune cell subpopulations were immunophenotyped among hPBMCs by flow cytometry on an Attune NxT (Thermofisher Scientific Inc. Waltham, MA, USA). Analyses were performed at 48 h post treatment. The expression of B, CD4, CD8, Th17 and Treg lymphocyte surface antigens was tested using monoclonal mouse anti-human Ab (Miltenyi Biotec SAS, Paris, France) (Table 9). […]

SH-SY5Y = system: SH-SY5Y; parameters: method as in PMID 28756263; settings: cited from earlier work
S. typhimurium TA100 = settings: 7i 40 µg/plate
[2] = 3 h treatment + 24 h recovery, +S9, 68.75 µg/mL
[3] = 3 h treatment + 24 h recovery, +S9, 137.5 µg/mL
[4] = 3 h treatment + 24 h recovery, +S9, 275 µg/mL
[5] = 3 h treatment + 24 h recovery, −S9, 68.78 µg/mL
[6] = 3 h treatment + 24 h recovery, −S9, 137.5 µg/mL
[7] = 3 h treatment + 24 h recovery, −S9, 275 µg/mL
[8] = 27 h continuous treatment, −S9, 68.75 µg/mL
[9] = 27 h continuous treatment, −S9, 137.5 µg/mL
[10] = 27 h continuous treatment, −S9, 275 µg/mL
[11] = +S9, positive control 2-anthramine 0.5
[12] = −S9, positive control MNNG 0.25

Structure (SMILES): CN(CCCNC(=O)c1ccc(Cl)cc1)Cc1ccccc1 [compound 7i]
- e-ratio (efflux ratio) (Caco-2 cell line): 2.3
- MN/2 × 10^3 Cells (TK6 cells; [2]): 10.5
- RS (%) (TK6 cells; [2]): 106.1%
- MN/2 × 10^3 Cells (TK6 cells; [3]): 6.0
- RS (%) (TK6 cells; [3]): 97.2%
- MN/2 × 10^3 Cells (TK6 cells; [4]): 9.0
- RS (%) (TK6 cells; [4]): 103.7%
- MN/2 × 10^3 Cells (TK6 cells; [5]): 6.0
- RS (%) (TK6 cells; [5]): 94.1%
- MN/2 × 10^3 Cells (TK6 cells; [6]): 8.0
- RS (%) (TK6 cells; [6]): 92.7%
- MN/2 × 10^3 Cells (TK6 cells; [7]): 8.0
- RS (%) (TK6 cells; [7]): 80.0%
- MN/2 × 10^3 Cells (TK6 cells; [8]): 1.0
- RS (%) (TK6 cells; [8]): 86.6%
- MN/2 × 10^3 Cells (TK6 cells; [9]): 7.0
- RS (%) (TK6 cells; [9]): 84.2%
- MN/2 × 10^3 Cells (TK6 cells; [10]): 6.0
- RS (%) (TK6 cells; [10]): 70.1%
- genotoxic characteristics (micronucleus, conclusion) (TK6 cells; TK6 cells, ±S9): no genotoxic characteristics
- Ames TA1535 +S9 (Mean revertants/well per title) (S. typhimurium TA1535; [11]): 0.9
- Ames TA1535 −S9 (Mean revertants/well per title) (S. typhimurium TA1535; [12]): 1.3
- effect on percentage of B, Th17, CD4 and CD8 T lymphocyte subpopulations and regulatory T cells ([1]; basal non-stimulating conditions): no effect
- toxicity on immune subpopulations ([1]; stimulating or not stimulating conditions): no toxicity effect
- Inhibition SH-SY5Y (% at 100 µM) (SH-SY5Y; 100 µM): 28%
- cytotoxicity (SH-SY5Y): no cytotoxicity
- Ames TA100 +S9 (Mean revertants/well per title) (S. typhimurium TA100; [11]): 0.9
- Ames TA100 −S9 (Mean revertants/well per title) (S. typhimurium TA100; [12]): 0.9
